This series can be described thus: RP, Thermo Scientific Acclaim RSLC 120 C18, 100 × 2.1 mm, 2.2 µm, 30 °C, 0.2 mL/min, estimated dead time 1.1 min; A: 90% water + 10% methanol + 0.01% formic acid + 5 mM ammonium formate, pH 3.61; B: methanol + 0.01% formic acid + 5 mM ammonium formate, pH 3.61; gradient (min/%B) 0/1 1/1 2/39 13/99.9 15/99.9 15.1/1 20.1/1. The settings on record: stereoisomer not certain.
As for `CC(N)C(=O)c1ccccc1` (stereo unspecified) [Cathinone], the LC retention time is 3.59 min.
For `NC(C(=O)NC1C(=O)N2C(C(=O)O)=C(Cl)CSC12)c1ccccc1` (stereo unspecified) [Cefaclor], the LC retention time was 4.09 min.
As for `CC1=C(C(=O)O)N2C(=O)C(NC(=O)C(N)c3ccc(O)cc3)C2SC1` (stereo unspecified) [Cefadroxil], the LC retention time was 2.84 min.
Regarding `CC1=C(C(=O)O)N2C(=O)C(NC(=O)C(N)c3ccccc3)C2SC1` (stereo unspecified) [Cefalexin], the LC retention time is 4.08 min.
In the case of `NC(=O)c1cc[n+](CC2=C(C(=O)[O-])N3C(=O)C(NC(=O)Cc4cccs4)C3SC2)cc1` (stereo unspecified) [Cefalonium], the LC retention time is 4.03 min.
`Cc1nnc(SCC2=C(C(=O)O)N3C(=O)C(NC(=O)Cn4cnnn4)C3SC2)s1` (stereo unspecified) [Cefazolin]: the LC retention time is 4.16 min.
Consider `CON=C(C(=O)NC1C(=O)N2C(C(=O)[O-])=C(C[n+]3cccc4c3CCCC4)CSC12)c1csc(N)n1` (stereo unspecified) [Cefquinome], for which the LC retention time is 3.76 min.
The value for `CC(C)(ON=C(C(=O)NC1C(=O)N2C(C(=O)[O-])=C(C[n+]3ccccc3)CSC12)c1csc(N)n1)C(=O)O` (stereo unspecified) [Ceftazidime] was 3.38 min; that for `CON=C(C(=O)NC1C(=O)N2C(C(=O)O)=C(CSC(=O)c3ccco3)CSC12)c1csc(N)n1` (stereo unspecified) [Ceftiofur] was 5.44 min; that for `COCc1c(C(C)C)nc(C(C)C)c(C=CC(O)CC(O)CC(=O)O)c1-c1ccc(F)cc1` (stereo unspecified) [Cerivastatin] was 11.6 min.
On to `COC(=O)COCCN1CCN(C(c2ccccc2)c2ccc(Cl)cc2)CC1` (stereo unspecified) [Cetirizine-Methyl ester], for which the LC retention time was 8.86 min.
On to `O=C(O)COCC[N+]1([O-])CCN(C(c2ccccc2)c2ccc(Cl)cc2)CC1` (stereo unspecified) [Cetirizine-N-Oxide], for which the LC retention time is 9.13 min.
`O=C(O)COCCN1CCN(C(c2ccccc2)c2ccc(Cl)cc2)CC1` (stereo unspecified) [Cetirizine]: the LC retention time was 8.79 min.
Take `CNC(=O)c1cc(Cl)cc(C)c1NC(=O)c1cc(Br)nn1-c1ncccc1Cl` [Chlorantraniliprole]: the LC retention time is 8.7 min.
The value for `Nc1ncnc(Nc2ccc(Cl)cc2)n1` [Chlorazanil] was 7.46 min; that for `Cc1ccccc1CN1CCN(CCOC(c2ccccc2)c2ccccc2Cl)CC1` (stereo unspecified) [Chlorbenzoxamine] was 10.8 min.
On to `CON(C)C(=O)Nc1ccc(Br)c(Cl)c1` [Chlorbromuron], for which the LC retention time is 9.55 min.
Next, `C#CC(C)OC(=O)Nc1cccc(Cl)c1` (stereo unspecified) [Chlorbufam]: 9.27 min; `CN1CCN(C(c2ccccc2)c2ccc(Cl)cc2)CC1` (stereo unspecified) [Chlorcyclizine]: 8.28 min; `N=C1CN(O)C(c2ccccc2)=c2cc(Cl)ccc2=N1` [Chlordiazepoxide-Desmethyl]: 8.27 min.
For the molecule `CN=C1CN(O)C(c2ccccc2)=c2cc(Cl)ccc2=N1` [Chlordiazepoxide], the LC retention time is 8.79 min.
`Cc1cc(Cl)ccc1N=CN(C)C` [Chlordimeform]: the LC retention time is 4.64 min.
For the molecule `CCCCOC(=O)C1C(C(=O)OCCCC)C2(Cl)C(Cl)=C(Cl)C1(Cl)C2(Cl)Cl` (stereo unspecified) [Chlorendate-Dibutyl], the LC retention time was 14 min.
For the molecule `CCOCn1c(-c2ccc(Cl)cc2)c(C#N)c(Br)c1C(F)(F)F` [Chlorfenapyr], the LC retention time is 11.8 min.
Take `COC(=O)C(Cl)Cc1ccc(Cl)cc1` (stereo unspecified) [Chlorfenprop-methyl]: the LC retention time is 10.2 min.
With `O=S(=O)(Oc1ccc(Cl)cc1)c1ccc(Cl)cc1` [Chlorfenson.Ovex.chlorofenizon.ephirsulfonate.ovatron], the LC retention time is 11.1 min.
Take `O=C(NC(=O)c1c(F)cccc1F)Nc1cc(Cl)c(Oc2ncc(C(F)(F)F)cc2Cl)c(Cl)c1` [Chlorfluazuron]: the LC retention time is 13.2 min.
As for `Cn1ncc(N)c(Cl)c1=O` [Chloridazone-methyl-desphenyl], the LC retention time is 3.53 min.
In the case of `Nc1cnn(-c2ccccc2)c(=O)c1Cl` [Chloridazone], the LC retention time was 5.34 min.
`CCOC(=O)c1ccccc1S(=O)(=O)NC(=O)Nc1nc(Cl)cc(OC)n1` [Chlorimuronethyl]: the LC retention time is 9.3 min.
Regarding `C[N+](C)(C)CCCl` [Chlormequat], the LC retention time is 1.67 min.
The value for `CN1C(=O)CCS(=O)(=O)C1c1ccc(Cl)cc1` (stereo unspecified) [Chlormezanone] was 5.94 min; that for `CCOC(=O)C(O)(c1ccc(Cl)cc1)c1ccc(Cl)cc1` [Chlorobenzilate] was 11.7 min.
Next, `CCCc1nn(C)c2c(=O)[nH]c(-c3cc(C(=O)CCl)ccc3OCC)nc12` [Chlorodenafil]: 10.2 min.
For the molecule `O=C1c2ccccc2C(=O)C1C(=O)C(c1ccccc1)c1ccc(Cl)cc1` (stereo unspecified) [Chlorophacinone], the LC retention time is 9.74 min.
`Clc1cccc(N2CCNCC2)c1` [Chlorophenylpiperazine (meta-)<U+00A0>(mCPP)]: the LC retention time is 5.42 min.
For the molecule `COC(=O)C1Cc2c([nH]c3ccccc23)C(c2ccc3c(c2)OCO3)N1C(=O)CCl` (stereo unspecified) [Chloropretadalafil], the LC retention time was 9.34 min.
With `CC(C)OC(=O)C(O)(c1ccc(Cl)cc1)c1ccc(Cl)cc1` [Chloropropylate], the LC retention time is 12.2 min.
`CN(C)CCN(Cc1ccc(Cl)cc1)c1ccccn1` [Chloropyramine]: the LC retention time is 7.09 min.
Next, `CC(CCCNCCO)Nc1ccnc2cc(Cl)ccc12` (stereo unspecified) [Chloroquine-Desethylhydroxy]: 3.88 min; `CCN(CCO)CCCC(C)Nc1ccnc2cc(Cl)ccc12` (stereo unspecified) [Chloroquine-Hydroxy]: 3.98 min.
Next, `CCN(CC)CCCC(C)Nc1ccnc2cc(Cl)ccc12` (stereo unspecified) [Chloroquine]: 4.16 min; `NC(=S)c1c(Cl)cccc1Cl` [Chlorothiamide]: 5.69 min.
Consider `Cc1ccc(NC(=O)N(C)C)cc1Cl` [Chlorotoluron], for which the LC retention time is 7.98 min.
Turning to `CN(C)C(=O)Nc1ccc(Oc2ccc(Cl)cc2)cc1` [Chloroxuron (Chloroxifenidim)], the LC retention time is 9.99 min.
Next, `CN(C)CCN1c2ccccc2Sc2ccc(Cl)cc21` [Chlorphenethazine]: 8.49 min; `CN(C)CCC(c1ccc(Cl)cc1)c1ccccn1` (stereo unspecified) [Chlorpheniramine]: 6.25 min; `CN(C)CCCN1c2ccccc2Sc2ccc(Cl)cc21` [Chlorpromazine]: 8.89 min.
Consider `CCCNC(=O)NS(=O)(=O)c1ccc(Cl)cc1` [Chlorpropamide], for which the LC retention time was 7.19 min.
As for `CC(C)OC(=O)Nc1cccc(Cl)c1` [Chlorpropham], the LC retention time is 9.78 min.
As to `CN(C)CCC=C1c2ccccc2Sc2ccc(Cl)cc21` [Chlorprotixene], the LC retention time is 8.99 min.
In the case of `COP(=S)(OC)Oc1nc(Cl)c(Cl)cc1Cl` [Chlorpyriphos-methyl], the LC retention time was 11.7 min.
The value for `CCOP(=S)(OCC)Oc1nc(Cl)c(Cl)cc1Cl` [Chlorpyriphos] was 12.7 min.
The value for `COc1nc(C)nc(NC(=O)NS(=O)(=O)c2ccccc2Cl)n1` [Chlorsulfuron] was 6.54 min; that for `CN(C)C1C(=O)C(C(N)=O)=C(O)C2(O)C(=O)C3=C(O)c4c(O)ccc(Cl)c4C(C)(O)C3CC12` (stereo unspecified) [Chlortetracycline] was 4.5 min.
For the molecule `COC(=O)c1c(Cl)c(Cl)c(C(=O)OC)c(Cl)c1Cl` [Chlorthal-dimethyl (DCPA. Dacthal) (NH4)], the LC retention time is 11.6 min.
Regarding `NS(=O)(=O)c1cc(C2(O)NC(=O)c3ccccc32)ccc1Cl` (stereo unspecified) [Chlorthalidone], the LC retention time is 5.06 min.
Take `COP(=S)(OC)Oc1ccc([N+](=O)[O-])c(Cl)c1` [Chlorthion]: the LC retention time is 10.2 min.
Regarding `Cc1cc(C)cc(C(=O)N(NC(=O)c2ccc3c(c2C)CCCO3)C(C)(C)C)c1` [Chromafenozide], the LC retention time is 9.93 min.
On to `CC1(C)CC1C(=O)NC(=CCCCCSCC(N)C(=O)O)C(=O)O` (stereo unspecified) [Cilastatin], for which the LC retention time is 4.88 min.
`CCOC(=O)C(CCc1ccccc1)NC1CCCN2CCCC(C(=O)O)N2C1=O` (stereo unspecified) [Cilazapril]: the LC retention time was 7.94 min.
For the molecule `CCOC(=O)C(Cl)=Cc1cc(N2C(=O)C3=C(CCCC3)C2=O)ccc1Cl` [Cinidon-ethyl], the LC retention time was 12.4 min.
For `CCCc1nn(C)c2c(=O)[nH]c(-c3cc(C(=O)CN4CCN(CC=Cc5ccccc5)CC4)ccc3OCC)nc12` [Cinnamyldenafil], the LC retention time is 9.28 min.
Next, `C(=Cc1ccccc1)CN1CCN(C(c2ccccc2)c2ccccc2)CC1` [Cinnarizine]: 9.86 min; `COCCOc1ccccc1S(=O)(=O)NC(=O)Nc1nc(OC)nc(OC)n1` [Cinosulfuron]: 6.36 min; `CCn1nc(C(=O)O)c(=O)c2cc3c(cc21)OCO3` [Cinoxacin]: 5.32 min.
Take `COc1cc(N)c(Cl)cc1C(=O)NC1CCN(CCCOc2ccc(F)cc2)CC1OC` (stereo unspecified) [Cisapride]: the LC retention time was 6.73 min.
Regarding `CN(C)CCCC1(c2ccc(F)cc2)OC(=O)c2cc(C#N)ccc21` (stereo unspecified) [Citalopram 3-oxo], the LC retention time is 6.6 min.
Next, `C[N+](C)([O-])CCCC1(c2ccc(F)cc2)OCc2cc(C#N)ccc21` (stereo unspecified) [Citalopram N-oxide]: 7.1 min.
Next, `CN(C)CCCC1(c2ccc(F)cc2)OCc2cc(C(N)=O)ccc21` (stereo unspecified) [Citalopram amide]: 5.15 min; `CN(C)CCCC1(c2ccc(F)cc2)OCc2cc(C(=O)O)ccc21` (stereo unspecified) [Citalopram carboxylic acid]: 5.83 min.

The record behind these values is the RepoRT retention time repository (doi:10.1021/acs.analchem.2c02893).
